Assay results as given in patent US7304037B2, “Cytostatic conjugates with integrin ligands” (priority 2001, dated 2007).
≈ marks a conversion by molar mass, not a printed value. Where two headings read alike, the source gives them in different places.

Columns and labels:
[1] = system: renal xenograft (RXF 944)
Text: (§1) In all in-vivo experiments for investigating the inhibition of tumour growth, athymic nude mice (NMRI nu/nu strain) were used. The tumour was developed by serial passage in nude mice, The human origin of the tumour was confirmed by isoenzymatic and immunohistochemical methods.
(§2) The tumour was implanted subcutaneously in both flanks of nu/nu nude mice 6 to 8 weeks old. […] The mice were assigned to the treatment group or the control group (5 mice per group having 8 to 10 assessable tumours) by randomization.
(§3) The size of the tumours was measured in two dimensions by means of a slide gauge. The tumour volume which correlated well with the cell count, was then used for all assessments. The volume was calculated according to the formula “length×breadth×breadth/2” ([a×b^2]/2; a and b representing two diameters arranged at right angles).
(§4) The values of the relative tumour volume (RTV) were calculated for each individual tumour by dividing the tumour size on day X with the tumour size on day 0 (at the time of randomization). The average values of the RTV were then used for the further assessment.
(§5) The inhibition of the increase of the tumour volume (tumour volume of the test group/control group, T/C, in percent) was the final measured value.

[2] = system: melanoma xenograft (MEXF 989); type: in vivo, athymic nude mice (NMRI nu/nu strain)
[3] = system: hemopoietic stem cells (bone marrow cells); assay: cells; type: cell-based, mice
Method: Bone marrow cells are flushed out of the femur of mice. 10^5 cells are incubated in McCoy 5A medium (0.3% agar) together with recombinant murine GM-CSF (Genzyme; parent cell colony formation) and the substances (10^−4 to 100 μg/ml) at 37° C. and 7% CO2. 7 days later, the colonies (<50 cells) and clusters (17–50 cells) are counted.

[4] = system: breast cancer model (MX-1)
Text: as §1, §2, §3, §4, §5
The compounds are dissolved in 1% aqueous dextrose solution and administered intravenously from day 1–3 and day 15–17.

[5] = molecular target: T1, αvβ3 receptor (αvβ3 from human A375 cells) (Homo sapiens, UniProt P05106+P06756); assay: αvβ3 binding test (echistatin displacement, SPA)
T1 construct: αvβ3 from human A375 cells was purified analogously to a procedure described by Wong et al; endogenous in cells; host or cells: human A375 cells (endogenous receptor, detergent-solubilised and purified)
T1 sequence (P06756 31-889 limits assumed): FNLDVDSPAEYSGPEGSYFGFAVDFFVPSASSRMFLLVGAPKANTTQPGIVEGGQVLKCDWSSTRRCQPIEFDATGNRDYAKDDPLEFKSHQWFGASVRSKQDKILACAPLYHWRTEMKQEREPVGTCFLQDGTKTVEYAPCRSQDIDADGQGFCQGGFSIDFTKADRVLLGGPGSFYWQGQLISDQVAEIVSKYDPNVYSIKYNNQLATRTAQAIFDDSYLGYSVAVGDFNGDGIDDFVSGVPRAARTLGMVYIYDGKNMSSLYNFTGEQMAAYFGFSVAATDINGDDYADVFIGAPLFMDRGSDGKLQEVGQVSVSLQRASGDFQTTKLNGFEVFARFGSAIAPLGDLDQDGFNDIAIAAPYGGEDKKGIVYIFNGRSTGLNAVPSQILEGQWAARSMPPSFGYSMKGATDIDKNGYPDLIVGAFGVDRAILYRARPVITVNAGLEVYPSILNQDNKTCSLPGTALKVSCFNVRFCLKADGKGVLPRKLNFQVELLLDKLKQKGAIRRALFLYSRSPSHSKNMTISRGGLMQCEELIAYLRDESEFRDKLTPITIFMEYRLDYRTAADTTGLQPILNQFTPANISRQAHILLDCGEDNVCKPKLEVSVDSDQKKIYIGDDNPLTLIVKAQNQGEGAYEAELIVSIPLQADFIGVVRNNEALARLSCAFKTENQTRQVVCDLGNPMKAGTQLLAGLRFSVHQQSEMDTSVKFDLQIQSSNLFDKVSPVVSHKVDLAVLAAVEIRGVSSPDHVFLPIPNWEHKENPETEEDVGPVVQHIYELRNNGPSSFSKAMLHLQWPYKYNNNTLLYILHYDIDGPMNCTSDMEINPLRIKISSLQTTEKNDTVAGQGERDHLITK
T1 sequence (P06756 891-1048 partner limits assumed): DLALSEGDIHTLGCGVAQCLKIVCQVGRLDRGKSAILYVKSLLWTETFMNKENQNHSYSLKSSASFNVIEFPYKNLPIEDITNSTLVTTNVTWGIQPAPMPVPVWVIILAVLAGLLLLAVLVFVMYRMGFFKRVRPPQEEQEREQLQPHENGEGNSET
T1 sequence (P05106 27-788): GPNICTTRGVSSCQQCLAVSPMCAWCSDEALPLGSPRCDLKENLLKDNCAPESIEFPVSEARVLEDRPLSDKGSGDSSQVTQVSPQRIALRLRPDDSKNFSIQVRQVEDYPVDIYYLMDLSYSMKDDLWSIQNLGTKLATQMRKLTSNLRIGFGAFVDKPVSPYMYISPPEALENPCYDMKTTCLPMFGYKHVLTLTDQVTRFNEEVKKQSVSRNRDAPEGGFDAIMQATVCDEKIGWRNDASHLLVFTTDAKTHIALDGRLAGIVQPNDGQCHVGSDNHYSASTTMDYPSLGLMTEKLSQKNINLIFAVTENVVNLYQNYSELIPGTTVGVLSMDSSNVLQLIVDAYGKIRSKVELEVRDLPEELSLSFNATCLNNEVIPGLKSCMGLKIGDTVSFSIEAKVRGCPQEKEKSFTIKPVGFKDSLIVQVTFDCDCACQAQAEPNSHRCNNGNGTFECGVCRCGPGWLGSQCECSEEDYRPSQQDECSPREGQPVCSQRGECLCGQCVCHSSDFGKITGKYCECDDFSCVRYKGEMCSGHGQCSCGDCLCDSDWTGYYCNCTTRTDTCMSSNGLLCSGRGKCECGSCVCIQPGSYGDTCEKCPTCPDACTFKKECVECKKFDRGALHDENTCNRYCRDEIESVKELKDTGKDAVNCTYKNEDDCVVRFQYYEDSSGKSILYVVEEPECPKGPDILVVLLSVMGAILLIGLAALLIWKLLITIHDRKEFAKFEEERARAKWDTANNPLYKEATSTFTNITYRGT
Method: αvβ3 from human A375 cells was purified analogously to a procedure described by Wong et al. in Molecular Pharmacology 50, 529–537 (1996). In each case, 10 μL of αvβ3 (5 ng) in TBS pH 7.6, 2 mM CaCl2, 1 mM MgCl2, 1% n-octylglucopyranoside (Sigma); 10 μL of test substance in TBS pH 7.6, 0.1% DMSO and 45 μL of TBS pH 7.6, 2 mM CaCl2, 1 mM MgCl2, 1 mM MnCl2 were incubated at room temperature for 1 h. In each case, 25 μL of WGA SPA beads (Amersham, 4 mg/ml) and 10 μL of echistatin (0.1 μCi, Amersham, chloramine-T labelled) were then added. After 16 h at room temperature, the samples were measured in a scintillation measuring apparatus (Wallac 1450).

[6] = system: HT29 human large intestine cell line; type: cell-based
Method: (§6) The human large intestine cell lines SW 480 and HT29 (ATCC No. CCL 228) and HTB38 and the mouse melanoma cell line B16F10 (CRL 6475) were grown to confluence in Roux dishes in seromed® RPMI 1640 medium (from Biochrom KG, Berlin) with addition of 10% FCS. They were then trypsinized and taken up in RPMI plus 10% FCS to a cell count of 50,000 cells or, for B16F10, 20,000 cells per mL. 100 μL of cell suspension per well were added to a 96 microwell plate and incubated at 37° C. for 1 day in a CO2 incubator. A further 100 μL of RPMI medium and 1 μL of DMSO were then added with the test substances. The growth was checked after day 6. For this purpose, 25 μL of MTT solution (3-(4,5-dimethylthiazol-2-yl)-2,5-diphenyltetrazolium bromide) were added to each well at a starting concentration of 5 mg/mL of water. The plate was incubated at 37° C. for 5 hours in a CO2 incubator. The medium was then aspirated and 100 1L of i-propanol/well were added. After shaking with 100 μL of water for 30 min, the extinction was measured at 595 nm using a Multiplate Reader (BIO-RAD 3550-UV).
(§7) The cytostatic action is indicated in Table 3 as an IC50 value, in each case for the individual cell lines.

[7] = system: SW480 human large intestine cell line; type: cell-based
Method: as §6, §7

[8] = system: B16F10 mouse melanoma cell line; type: cell-based
Method: as §6, §7

[9] = IC50 values of the binding to the αVβ3 receptor
[10] = RXF 944, 6 mg/kg/day intravenously day 1–3 and day 15–17
[11] = MEXF 989, 6 mg/kg/day intravenously day 1–3 and day 15–17
[12] = MX-1, 6 mg/kg/day intravenously day 1–3 and day 15–17
[13] = read-out: IC50 values of the binding to the αVβ3 receptor

Compound	toxicity against stem cells in vitro compared to camptothecin (in words) [3]	IC50 [6] [nM]	IC50 [7] [nM]	IC50 [8] [nM]	IC50 [5, 13] [nM]	other results
CCCNC(=O)Nc1cccc(S(=O)(=O)Nc2cccc(C(CC(=O)[O-])NC(=O)Nc3ccc(NC(=S)NCC(=O)N4CCC[C@H]4C(=O)N[C@H](C(=O)O[C@]4(CC)C(=O)OCc5c4cc4n(c5=O)Cc5cc6ccccc6nc5-4)C(C)C)cc3)c2)c1.[Na+] (single isomer, unassigned) [Example 1]	drastically reduced toxicity against stem cells in vitro compared to camptothecin	60	150	160	–	lethality ([1]; RXF 944, 18 mg/kg/day intravenously day 1–3 and day 15–17): 1/7; lethality ([1]; RXF 944, 24 mg/kg/day intravenously day 1–3 and day 15–17): 0/7; lethality ([2]; MEXF 989, 18 mg/kg/day intravenously day 1–3 and day 15–17): 1/5; lethality ([2]; MEXF 989, 24 mg/kg/day intravenously day 1–3 and day 15–17): 1/5; lethality ([4]; MX-1, 18 mg/kg/day intravenously day 1–3 and day 15–17): 0/5; IC50 [5, 9]: 8 nM
CCCNC(=O)Nc1cccc(S(=O)(=O)Nc2cccc(C(CC(=O)[O-])NC(=O)Nc3ccc(NC(=S)NCC(=O)N4CCC[C@H]4C(=O)N[C@H](C(=O)O[C@]4(CC)C(=O)OCc5c4cc4n(c5=O)Cc5cc6ccccc6nc5-4)C(C)C)cc3)c2)c1.[Na+] (single isomer, unassigned) [Example 2]	drastically reduced toxicity against stem cells in vitro compared to camptothecin	150	400	400	–	IC50 [5, 9]: 800 nM
CCCNC(=O)Nc1cccc(S(=O)(=O)Nc2cccc(C(CC(=O)O)NC(=O)Nc3ccc(NC(=S)N[C@@H](C)C(=O)N4CCC[C@H]4C(=O)N[C@H](C(=O)O[C@]4(CC)C(=O)OCc5c4cc4n(c5=O)Cc5cc6ccccc6nc5-4)C(C)C)cc3)c2)c1 (single isomer, unassigned) [Example 3]	drastically reduced toxicity against stem cells in vitro compared to camptothecin	150	500	700	15	lethality [1, 10]: 1/7; optimal T/C [1, 10]: 24.0%; inhibition of the tumour growth (in words) ([1]; RXF 944, intravenously day 1–3 and day 15–17): effected inhibitions of the tumour growth; lethality [2, 11]: 0/5; optimal T/C [2, 11]: 10.3%; inhibition of the tumour growth (in words) ([2]; MEXF 989, intravenously day 1–3 and day 15–17): effected inhibitions of the tumour growth; lethality [4, 12]: 0/5; optimal T/C [4, 12]: 12.4%; inhibition of the tumour growth (in words) ([4]; MX-1, intravenously day 1–3 and day 15–17): effected inhibitions of the tumour growth
CCCNC(=O)Nc1cccc(S(=O)(=O)Nc2cccc(C(CC(=O)O)NC(=O)Nc3ccc(NC(=S)N[C@@H](C)C(=O)N4CCC[C@H]4C(=O)N[C@H](C(=O)O[C@]4(CC)C(=O)OCc5c4cc4n(c5=O)Cc5cc6ccccc6nc5-4)C(C)C)cc3)c2)c1 (single isomer, unassigned) [Example 4]	drastically reduced toxicity against stem cells in vitro compared to camptothecin	150	600	700	500	–
CCCNC(=O)Nc1cccc(S(=O)(=O)Nc2cccc(C(CC(=O)O)NC(=O)Nc3ccc(NC(=S)N[C@@H](Cc4c[nH]cn4)C(=O)N4CCC[C@H]4C(=O)N[C@H](C(=O)O[C@]4(CC)C(=O)OCc5c4cc4n(c5=O)Cc5cc6ccccc6nc5-4)C(C)C)cc3)c2)c1 (single isomer, unassigned) [Example 5]	–	300	700	1000	30	–
CCCNC(=O)Nc1cccc(S(=O)(=O)Nc2cccc(C(CC(=O)O)NC(=O)Nc3ccc(NC(=S)N[C@@H](CC(N)=O)C(=O)N4CCC[C@H]4C(=O)N[C@H](C(=O)O[C@]4(CC)C(=O)OCc5c4cc4n(c5=O)Cc5cc6ccccc6nc5-4)C(C)C)cc3)c2)c1 (single isomer, unassigned) [Example 6]	–	200	400	600	100	–
CCCNC(=O)Nc1cccc(S(=O)(=O)Nc2cccc(C(CC(=O)O)NC(=O)Nc3ccc(NC(=S)N[C@@H](CCC)C(=O)N4CCC[C@H]4C(=O)N[C@H](C(=O)O[C@]4(CC)C(=O)OCc5c4cc4n(c5=O)Cc5cc6ccccc6nc5-4)C(C)C)cc3)c2)c1 (single isomer, unassigned) [Example 7]	–	350	600	1000	100	–
CCCNC(=O)Nc1cccc(S(=O)(=O)Nc2cccc(C(CC(=O)O)NC(=O)Nc3ccc(NC(=S)N[C@@H](CC(=O)O)C(=O)N4CCC[C@H]4C(=O)N[C@H](C(=O)O[C@]4(CC)C(=O)OCc5c4cc4n(c5=O)Cc5cc6ccccc6nc5-4)C(C)C)cc3)c2)c1 (single isomer, unassigned) [Example 8]	–	50	50	300	–	–
CCCNC(=O)Nc1cccc(S(=O)(=O)Nc2cccc(C(CC(=O)O)NC(=O)Nc3ccc(NC(=S)NCC(=O)N4CCC[C@H]4C(=O)N[C@@H](CC(C)C)C(=O)O[C@]4(CC)C(=O)OCc5c4cc4n(c5=O)Cc5cc6ccccc6nc5-4)cc3)c2)c1 (single isomer, unassigned) [Example 9]	–	30	70	80	–	–
CCCNC(=O)Nc1cccc(S(=O)(=O)Nc2cccc(C(CC(=O)O)NC(=O)Nc3ccc(NC(=S)N[C@@H](C)C(=O)N4CCC[C@H]4C(=O)N[C@@H](CC(C)C)C(=O)NC4C=CCC5CN(c6c(F)cc7c(=O)c(C(=O)O)cn(C8CC8)c7c6Cl)CC54)cc3)c2)c1 (single isomer, unassigned) [Example 12]	–	–	–	–	30	IC50 ([6]; 6 days): 600 nM; IC50 ([7]; 6 days): 1000 nM; IC50 ([8]; 6 days): 2000 nM
CC[C@@]1(O)C(=O)OCc2c1cc1n(c2=O)Cc2cc3ccccc3nc2-1 [camptothecin, 20(S)-Camptothecin, reference compound]	–	–	–	–	–	lethality ([1]; RXF 944, 2.5 mg/kg/day): 0/6; optimal T/C ([1]; RXF 944, 2.5 mg/kg/day): 41.1%; IC50 ([3]; Mus musculus, Bone marrow cell, 168 h, murine bone marrow cells, GM-CSF, 7 days, read-out: IC50 values of toxicity against hemopoietic stem cells): 3 ng/mL (≈ 8.61 nM)
CC[C@@]1(O)C(=O)OCc2c1cc1n(c2=O)Cc2cc3c(CN(C)C)c(O)ccc3nc2-1 [topotecan, reference compound]	–	–	–	–	–	lethality ([1]; RXF 944, 1.8 mg/kg/day): 0/7; optimal T/C ([1]; RXF 944, 1.8 mg/kg/day): 47.8%
